Reference: PubChem BioAssay AID330 (DTP/NCI, 2004)
Where “and” joins values, the source holds several entries; their conditions need not be identical. Equal entries are not always repeated. Inconclusive results and toxic doses are left out. The calls were made as follows: active = survival T/C of 150% or more; inactive = T/C below 125% in these data.

Tested on: P388 leukemia ip, CD2F1 mice, survival T/C
Experiment: NCI In Vivo Anticancer Drug Screen. Data for tumor model P388 Leukemia (intraperitoneal) in CD2F1 (CDF1) mice
Settings: endpoint: median survival time, higher = longer survival
How it was run: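 Mice carrying the transplanted tumor received test compound or vehicle. Survival was recorded in each group, and the value is the treated-group measurement divided by that of the vehicle-treated control group.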

[1] = dose: 60.0 mg/kg/injection, schedule: Q01DX005 (ip), vehicle: Klucel (hydroxypropylcellulose) (HPC)
[2] = dose: 120.0 mg/kg/injection, schedule: Q01DX005 (ip), vehicle: Klucel (hydroxypropylcellulose) (HPC)
[3] = dose: 60.0 mg/kg/injection, schedule: Q01DX005 (ip), vehicle: saline with Tween-80
[4] = dose: 120.0 mg/kg/injection, schedule: Q01DX005 (ip), vehicle: saline with Tween-80
[5] = dose: 240.0 mg/kg/injection, schedule: Q01DX005 (ip), vehicle: saline with Tween-80
[6] = dose: 50.0 mg/kg/injection, schedule: Q01DX009 (ip), vehicle: saline with Tween-80
[7] = dose: 100.0 mg/kg/injection, schedule: Q01DX009 (ip), vehicle: saline with Tween-80

Measured: T/C

Nc1c[n+]([O-])ccn1
inactive: dose: 100.0 mg/kg/injection, schedule: Q04DX003 (ip), vehicle: saline 101 % of control | dose: 200.0 mg/kg/injection, schedule: Q04DX003 (ip), vehicle: saline 98 % of control | dose: 400.0 mg/kg/injection, schedule: Q04DX003 (ip), vehicle: saline 93 % of control

[Cl][Pt+2][Cl].[NH-]c1ccc(S(=O)(=O)O)cc1[NH-]
inactive: dose: 6.25 mg/kg/injection, schedule: Q04DX002 (ip), vehicle: saline with Tween-80 102 % of control | dose: 12.5 mg/kg/injection, schedule: Q04DX002 (ip), vehicle: saline with Tween-80 111 % of control | dose: 25.0 mg/kg/injection, schedule: Q04DX002 (ip), vehicle: saline with Tween-80 119 % of control | dose: 50.0 mg/kg/injection, schedule: Q04DX002 (ip), vehicle: saline with Tween-80 124 % of control

Cc1cc(Br)c(NC(=O)c2c(-c3c(Cl)cccc3Cl)noc2C)c(Br)c1
inactive: [1] 88 % of control | [2] 95 % of control

COC(=O)C1=CCN2CCCC12C (stereo unspecified)
inactive: dose: 25.0 mg/kg/injection, schedule: Q01DX001 (ip), vehicle: saline 97 % of control | dose: 50.0 mg/kg/injection, schedule: Q01DX001 (ip), vehicle: saline 101 % of control | dose: 100.0 mg/kg/injection, schedule: Q01DX001 (ip), vehicle: saline 105 % of control

COc1ccc2nc(Cl)c(Br)c(C)c2c1
inactive: [3] 95 % of control | [4] 92 % of control | [5] 90 % of control

CCOC(=O)Nc1cc(Cl)c2nnn(C(=O)OCC)c2n1
inactive: dose: 6.25 mg/kg/injection, schedule: Q01DX009 (ip), vehicle: other 105 % of control | dose: 11.0 mg/kg/injection, schedule: Q01DX009 (ip), vehicle: other 103 % of control | dose: 12.5 mg/kg/injection, schedule: Q01DX009 (ip), vehicle: other 115 % of control | dose: 16.5 mg/kg/injection, schedule: Q01DX009 (ip), vehicle: other 106 % of control | dose: 25.0 mg/kg/injection, schedule: Q01DX009 (ip), vehicle: other 106 % of control | dose: 37.5 mg/kg/injection, schedule: Q01DX009 (ip), vehicle: other 112 % of control | dose: 50.0 mg/kg/injection, schedule: Q01DX009 (ip), vehicle: other 122 % of control | dose: 100.0 mg/kg/injection, schedule: Q01DX009 (ip), vehicle: other 115 % of control

CC(=O)c1cc2c(cc1C(C)C)CC[C@H]1[C@](C)(C#N)CCC[C@]21C
inactive: dose: 50.0 mg/kg/injection, schedule: Q01DX009 (ip), vehicle: saline sonified 86 % of control | dose: 100.0 mg/kg/injection, schedule: Q01DX009 (ip), vehicle: saline sonified 90 % of control

COc1ccc(/C=C2\C=CC(=O)O2)cc1
inactive: dose: 100.0 mg/kg/injection, schedule: Q01DX002 (ip), vehicle: Klucel (hydroxypropylcellulose) (HPC) 104 % of control | dose: 200.0 mg/kg/injection, schedule: Q01DX002 (ip), vehicle: Klucel (hydroxypropylcellulose) (HPC) 103 % of control | dose: 400.0 mg/kg/injection, schedule: Q01DX002 (ip), vehicle: Klucel (hydroxypropylcellulose) (HPC) 105 % of control

CC1=CC(C)(C)N=C2SC(=O)c3cc4c(cc3N12)OCO4
inactive: dose: 100.0 mg/kg/injection, schedule: Q04DX002 (ip), vehicle: saline with Tween-80 106 % of control | dose: 200.0 mg/kg/injection, schedule: Q04DX002 (ip), vehicle: saline with Tween-80 98 % of control | dose: 400.0 mg/kg/injection, schedule: Q04DX002 (ip), vehicle: saline with Tween-80 97 % of control

O=[N+]([O-])c1ccc(C=Nc2ccc3c4c(cccc24)-c2ccccc2-3)cc1
inactive: [6] 101 % of control | [7] 90 % of control | dose: 200.0 mg/kg/injection, schedule: Q01DX009 (ip), vehicle: saline with Tween-80 108 % of control

COc1cc(-c2ccc(N=Nc3c(O)c(C(=O)Nc4ccccc4OC)cc4ccccc34)c(OC)c2)ccc1N=Nc1c(O)c(C(=O)Nc2ccccc2OC)cc2ccccc12
inactive: dose: 6.25 mg/kg/injection, schedule: Q01DX005 (ip), vehicle: saline with Tween-80 90 % of control | dose: 12.5 mg/kg/injection, schedule: Q01DX005 (ip), vehicle: saline with Tween-80 96 % of control | dose: 25.0 mg/kg/injection, schedule: Q01DX005 (ip), vehicle: saline with Tween-80 89 % of control

CCOC(=O)C1(Br)CCCCC1Br (stereo unspecified)
inactive: dose: 25.0 mg/kg/injection, schedule: Q01DX009 (ip), vehicle: saline with Tween-80 108 % of control and 111 % of control | [6] 115 % of control and 118 % of control | [7] 113 % of control and 118 % of control and 119 % of control

N#CC(C(=O)CCC(=O)C(C#N)c1c(Cl)cccc1Cl)c1c(Cl)cccc1Cl (stereo unspecified)
inactive: dose: 50.0 mg/kg/injection, schedule: Q01DX005 (ip), vehicle: saline with Tween-80 100 % of control | dose: 100.0 mg/kg/injection, schedule: Q01DX005 (ip), vehicle: saline with Tween-80 98 % of control | dose: 200.0 mg/kg/injection, schedule: Q01DX005 (ip), vehicle: saline with Tween-80 98 % of control

C1C2OC2C2C1C1CC2C2OC12 (stereo unspecified)
inactive: dose: 6.25 mg/kg/injection, schedule: Q01DX009 (ip), vehicle: Klucel (hydroxypropylcellulose) (HPC) 105 % of control | dose: 12.5 mg/kg/injection, schedule: Q01DX009 (ip), vehicle: Klucel (hydroxypropylcellulose) (HPC) 96 % of control | dose: 25.0 mg/kg/injection, schedule: Q01DX009 (ip), vehicle: Klucel (hydroxypropylcellulose) (HPC) 99 % of control

Cc1ccc(-c2nc(N)[nH]c2-c2ccc(C)cc2)cc1
inactive: dose: 5.0 mg/kg/injection, schedule: Q04DX002 (ip), vehicle: saline with Tween-80 104 % of control | dose: 10.0 mg/kg/injection, schedule: Q04DX002 (ip), vehicle: saline with Tween-80 100 % of control | dose: 20.0 mg/kg/injection, schedule: Q04DX002 (ip), vehicle: saline with Tween-80 99 % of control

COC(=O)c1[nH]c(=O)c(C#N)c(C(=O)OC)c1C(=O)/C=C/c1ccccc1
inactive: [3] 100 % of control | [4] 96 % of control | [5] 90 % of control

O=C(Nc1ccc(F)cc1F)Oc1ccc2cc(Br)ccc2c1
inactive: dose: 50.0 mg/kg/injection, schedule: Q01DX009 (ip), vehicle: saline + alcohol 97 % of control | dose: 100.0 mg/kg/injection, schedule: Q01DX009 (ip), vehicle: saline + alcohol 91 % of control | dose: 200.0 mg/kg/injection, schedule: Q01DX009 (ip), vehicle: saline + alcohol 100 % of control

CCCNC(=O)ON1C(=O)C2C3C=CC(C3)C2C1=O (stereo unspecified)
inactive: dose: 6.25 mg/kg/injection, schedule: Q01DX005 (ip), vehicle: Klucel (hydroxypropylcellulose) (HPC) 96 % of control | dose: 12.5 mg/kg/injection, schedule: Q01DX005 (ip), vehicle: Klucel (hydroxypropylcellulose) (HPC) 104 % of control | dose: 25.0 mg/kg/injection, schedule: Q01DX005 (ip), vehicle: Klucel (hydroxypropylcellulose) (HPC) 96 % of control

CNC(=O)c1ccc(OC)cc1C1(O)c2ccccc2CCc2ccccc21
inactive: dose: 50.0 mg/kg/injection, schedule: Q01DX005 (ip), vehicle: Klucel (hydroxypropylcellulose) (HPC) 92 % of control | dose: 100.0 mg/kg/injection, schedule: Q01DX005 (ip), vehicle: Klucel (hydroxypropylcellulose) (HPC) 92 % of control | dose: 200.0 mg/kg/injection, schedule: Q01DX005 (ip), vehicle: Klucel (hydroxypropylcellulose) (HPC) 89 % of control

COC(=O)c1nc(=S)[nH]c(C(=O)OC)c1C(=O)c1ccc(O)c(OC)c1
inactive: [1] 104 % of control | [2] 90 % of control

COc1ccc(C(C)(OC)c2cc(C(C)(C)C)c(O)c(C(C)(C)C)c2)cc1 (stereo unspecified)
inactive: dose: 50.0 mg/kg/injection, schedule: Q01DX005 (ip), vehicle: saline + Tween-80 + alcohol 104 % of control | dose: 100.0 mg/kg/injection, schedule: Q01DX005 (ip), vehicle: saline + Tween-80 + alcohol 101 % of control | dose: 200.0 mg/kg/injection, schedule: Q01DX005 (ip), vehicle: saline + Tween-80 + alcohol 102 % of control
